Consider 53 compounds from patent publication US7119073B2, “Peptides and their use as inhibitors of hepatitis C virus ns3 protease” (Istituto Di Ricerche Di Biologia Molecolare P. Angeletti SpA, priority 2001, dated 2006).

Where a SMILES comes first, the peptide text is derived from it. The star is where a group is joined. NHPhenethyl = c1ccc(CCN*)cc1; Boc = CC(C)(C)OC(=O)* Where only a bound is given, the exact number is not on record here.

One test deals with T1, NS3 protease domain complexed to a modified form of the NS4A peptide (Pep4AK) (Hepatitis C virus genotype 1b, UniProt P26663).
T1 construct: NS3 protease domain (residues 1027–1206 of the HCV polyprotein)
T1 sequence (P26663 1027-1206, other chains not shown): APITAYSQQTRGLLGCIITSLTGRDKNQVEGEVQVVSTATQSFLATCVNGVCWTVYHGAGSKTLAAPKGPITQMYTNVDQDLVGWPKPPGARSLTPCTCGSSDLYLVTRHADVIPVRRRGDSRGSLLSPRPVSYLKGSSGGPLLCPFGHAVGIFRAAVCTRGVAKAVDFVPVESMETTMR
Description: HCV NS3 protease domain/NS4A cofactor peptide assay (Assay B). The class given is biochemical. The following applies: NS3 protease domain/NS4A cofactor peptide assay; read-out: Assay B (IC50 class).
With `CC(C)CC(NC(=O)c1ccccc1-c1ccccc1C(=O)O)C(=O)NC(CC(F)F)C(=O)NCCc1cccc(NCC(=O)O)c1` (centres unmarked) [Compound 720], the IC50 was under 100 µM.
On the same count and under the same terms, under `CC(C)CC(NC(=O)c1ccccc1-c1ccccc1C(=O)O)C(=O)NC(CS)C(=O)NCCc1ccc(Cl)cc1Cl` (centres unmarked) [Compound 717] stands under 100 µM.
Same read-out and setting: under `CC(C)CC(NC(=O)c1ccccc1-c1ccccc1C(=O)O)C(=O)NC(CC(F)F)C(=O)NCCc1ccc(C(=O)O)cc1Cl` (centres unmarked) [Compound 715] stands under 100 µM; under `CC(C)C[C@H](NC(=O)C1(Cc2ccsc2C(=O)O)CCc2ccccc2N1)C(=O)N[C@@H](CC(F)F)C(=O)NCCc1cccc(/C=C/C(=O)O)c1` (single isomer, unassigned) [Compound 714], under 100 µM; under `CC(C)CC(NC(=O)c1ccccc1-c1ccccc1C(=O)O)C(=O)NC(CC(F)F)C(=O)NCCc1c(F)cc(C(=O)O)cc1F` (centres unmarked) [Compound 718], under 100 µM.
Still for that read-out and setting: under `CC(C)C[C@H](NC(=O)C1Cc2ccccc2N1)C(=O)N[C@@H](CC(F)F)C(=O)NCCc1c(F)cc(C(=O)O)cc1F` (some centres unmarked) [Compound 709] stands under 100 µM.

The test is the same for the next values; noted with them: Table 1; NS3 protease domain/Pep4AK, 4AB peptide substrate; read-out: Assay B.
Take `CC(C)COC(=O)NC(CCC(=O)O)C(=O)NC(CC(C)C)C(=O)NC(CS)C(=O)NCCc1cccs1` (centres unmarked) [Compound 191]: the IC50 is under 100 µM.
Turning to `CCOc1ccccc1CCNC(=O)C(CS)NC(=O)C(CC(C)C)NC(=O)C(CCC(=O)O)NC(=O)OCC(C)C` (centres unmarked) [Compound 120], the IC50 was under 100 µM.
For the compound `CC(C)COC(=O)NC(C(=O)NC(CC(C)C)C(=O)NC(CS)C(=O)NCCc1ccc(C(=O)O)cc1)C(C)C` (centres unmarked) [Compound 152], the IC50 was under 10 µM.
The same measure, in the same setting: the same measure for `COc1ccc(CCNC(=O)C(CS)NC(=O)C(CC(C)C)NC(=O)C(CCC(=O)O)NC(=O)OCC(C)C)cc1` (centres unmarked) [Compound 141]: under 100 µM; for `CC(C)C[C@H](NC(=O)[C@@H](NC(=O)OCC1CCCC1)C(C)C)C(=O)N[C@@H](CS)C(=O)NCCc1ccc(C(=O)O)cc1Cl` [Compound 181]: under 10 µM; for `CC(C)COC(=O)NC(CCC(=O)O)C(=O)NC(CC(C)C)C(=O)NC(CS)C(=O)NCCc1ccc([N+](=O)[O-])cc1` (centres unmarked) [Compound 147]: under 100 µM.
Still for that read-out and setting: the same measure for `CC(C)COC(=O)NC(CCC(=O)O)C(=O)NC(CC(C)C)C(=O)NC(CS)C(=O)NCCc1ccc(O)cc1` (centres unmarked) [Compound 146]: under 100 µM; for `CC(C)COC(=O)NC(CCC(=O)O)C(=O)NC(CC(C)C)C(=O)NC(CS)C(=O)NCCc1cccc(O)c1` (centres unmarked) [Compound 129]: under 100 µM; for `COC(=O)c1cccc(CCNC(=O)C(CS)NC(=O)C(CC(C)C)NC(=O)C(CCC(=O)O)NC(=O)OCC(C)C)c1` (centres unmarked) [Compound 132]: under 100 µM.
In the case of `CC(C)COC(=O)NC(CCC(=O)O)C(=O)NC(CC(C)C)C(=O)NC(CS)C(=O)NCCc1ccccc1Br` (centres unmarked) [Compound 117], the IC50 is under 100 µM.
Regarding `CC(C)COC(=O)NC(CCC(=O)O)C(=O)NC(CC(C)C)C(=O)NC(CS)C(=O)NCCc1cccc(-c2ccccc2)c1` (centres unmarked) [Compound 136], the IC50 was under 100 µM.
Same read-out and setting: the same measure for `CC(C)COC(=O)NC(CCC(=O)O)C(=O)NC(CC(C)C)C(=O)NC(CS)C(=O)NCCc1cccnc1` (centres unmarked) [Compound 193]: under 100 µM; for `CC(C)COC(=O)NC(CCC(=O)O)C(=O)NC(CC(C)C)C(=O)NC(CS)C(=O)NCCc1ccccc1` (centres unmarked) [Compound 104]: under 100 µM; for `CC(C)CC(NC(=O)C(CCC(=O)O)NC(=O)OC(C)(C)C)C(=O)NC(CS)C(=O)NCCc1ccccc1` (stereo not drawn) [Compound 103] (Boc-Glu-Leu-Cys-NHPhenethyl; configuration not given here): under 100 µM.
On to `COc1ccc(CCNC(=O)C(CS)NC(=O)C(CC(C)C)NC(=O)C(CCC(=O)O)NC(=O)OCC(C)C)cc1Br` (centres unmarked) [Compound 176], for which the IC50 is under 100 µM.
Same read-out and setting: the same measure for `CC(C)COC(=O)N[C@@H](CCC(=O)O)C(=O)N[C@@H](CC(C)C)C(=O)N[C@@H](CS)C(=O)NCCc1cn(CC(=O)O)c2ccccc12` [Compound 188]: under 10 µM.

The test is the same for the next values; noted with them: Table 2; NS3 protease domain/Pep4AK; read-out: Assay B.
With `CC(C)C[C@H](NC(=O)[C@H](CCC(=O)O)NC(=O)C1CCC(C(=O)O)CC1)C(=O)N[C@@H](CS)C(=O)NCCc1ccccc1Cl` (mixture of isomers) [Compound 233], the IC50 is under 100 µM.
On the same count and under the same terms, the same measure for `CC(C)C[C@H](NC(=O)[C@H](CCC(=O)O)NS(=O)(=O)c1cccs1)C(=O)N[C@@H](CS)C(=O)NCCc1ccccc1Cl` [Compound 253]: under 100 µM; for `COc1ccc(CCNC(=O)[C@H](CS)NC(=O)[C@H](CC(C)C)NC(=O)[C@H](CCC(=O)O)NC(=O)C2C[C@H]2c2ccccc2)cc1` (some centres unmarked) [Compound 220]: under 100 µM.
The same measure, in the same setting: the same measure for `CC(C)C[C@H](NC(=O)[C@H](CCC(=O)O)NC(=O)c1cccc(Br)c1)C(=O)N[C@@H](CS)C(=O)NCCc1ccccc1Cl` [Compound 206]: under 100 µM.
On the same count and under the same terms, under `CC(C)C[C@H](NC(=O)[C@H](CCC(=O)O)NC(=O)c1ccco1)C(=O)N[C@@H](CS)C(=O)NCCc1ccccc1Cl` [Compound 201] stands under 100 µM; under `Cc1ccc(S(=O)(=O)N[C@@H](CCC(=O)O)C(=O)N[C@@H](CC(C)C)C(=O)N[C@@H](CS)C(=O)NCCc2ccccc2Cl)cc1` [Compound 251], under 100 µM.
With `CC(C)C[C@H](NC(=O)[C@H](CCC(=O)O)NC(=O)c1cc(O)ccc1N)C(=O)N[C@@H](CS)C(=O)NCCc1ccccc1Cl` [Compound 208], the IC50 was under 100 µM.
Same read-out and setting: the same measure for `COc1ccc(CCNC(=O)[C@H](CS)NC(=O)[C@H](CC(C)C)NC(=O)[C@H](CCC(=O)O)NC(=O)C(C)(C)CCC(=O)O)cc1` [Compound 243]: under 100 µM; for `CC(C)C[C@H](NC(=O)[C@H](CCC(=O)O)NC(=O)CCc1ccccc1)C(=O)N[C@@H](CS)C(=O)NCCc1ccc(Cl)cc1Cl` [Compound 217]: under 100 µM.
Same read-out and setting: under `COc1ccc(CCNC(=O)[C@H](CS)NC(=O)[C@H](CC(C)C)NC(=O)[C@H](CCC(=O)O)NC(=O)c2ccc(C#N)cc2)cc1` [Compound 207] stands under 100 µM.
Same read-out and setting: under `COc1ccc(CCNC(=O)[C@H](CS)NC(=O)[C@H](CC(C)C)NC(=O)[C@H](CCC(=O)O)NS(C)(=O)=O)cc1` [Compound 254] stands under 100 µM; under `COc1ccc(CCNC(=O)[C@H](CS)NC(=O)[C@H](CC(C)C)NC(=O)[C@H](CCC(=O)O)NC(=O)CCC2CCCC2)cc1` [Compound 236], under 100 µM; under `COc1ccc(CCNC(=O)[C@H](CS)NC(=O)[C@H](CC(C)C)NC(=O)[C@H](CCC(=O)O)NS(=O)(=O)c2ccc3ccccc3c2)cc1` [Compound 255], under 100 µM.
Take `COc1ccc(CCNC(=O)[C@H](CS)NC(=O)[C@H](CC(C)C)NC(=O)[C@H](CCC(=O)O)NC(=O)C2CCCCCC2)cc1` [Compound 232]: the IC50 is under 100 µM.
`CC(C)C[C@H](NC(=O)[C@H](CCC(=O)O)NC(=O)C1CCCCC1)C(=O)N[C@@H](CS)C(=O)NCCc1ccccc1Cl` [Compound 230]: the IC50 is under 100 µM.
On the same count and under the same terms, under `CC(C)CC(O)C(=O)N[C@@H](CCC(=O)O)C(=O)N[C@@H](CC(C)C)C(=O)N[C@@H](CS)C(=O)NCCc1ccccc1Cl` (some centres unmarked) [Compound 229] stands under 100 µM.
Still for that read-out and setting: under `CC(C)C[C@H](NC(=O)[C@H](CCC(=O)O)NC(=O)Cc1cccc(CC(=O)O)c1)C(=O)N[C@@H](CS)C(=O)NCCc1ccc(Cl)cc1Cl` [Compound 226] stands under 100 µM.
For the compound `CC(C)C[C@H](NC(=O)[C@H](CCC(=O)O)NC(=O)c1ccc2c(c1)OCO2)C(=O)N[C@@H](CS)C(=O)NCCc1ccccc1Cl` [Compound 203], the IC50 is under 100 µM.
The same measure, in the same setting: the same measure for `CC(C)C[C@H](NC(=O)[C@H](CCC(=O)O)NC(=O)CC(C)(C)CC(=O)O)C(=O)N[C@@H](CS)C(=O)NCCc1ccccc1Cl` [Compound 240]: under 100 µM; for `CC(C)C[C@H](NC(=O)[C@H](CCC(=O)O)NC(=O)NCc1ccccc1)C(=O)N[C@@H](CS)C(=O)NCCc1ccc(Cl)cc1Cl` [Compound 248]: under 100 µM.
On the same count and under the same terms, the same measure for `CC(C)C[C@H](NC(=O)[C@H](CCC(=O)O)NC(=O)c1cc2ccccc2s1)C(=O)N[C@@H](CS)C(=O)NCCc1ccccc1Cl` [Compound 212]: under 100 µM.

Still in this test, the particulars now being: Table 4; NS3 protease domain/Pep4AK; read-out: Assay B.
As to `CC(C)COC(=O)N[C@@H](CCC(=O)O)C(=O)N[C@@H](CC1CCCCC1)C(=O)N[C@@H](CS)C(=O)NCCc1ccc(C(=O)O)cc1` [Compound 409], the IC50 is under 10 µM.
With `CC[C@H](NC(=O)[C@H](CCC(=O)O)NC(=O)OCC(C)C)C(=O)N[C@@H](CS)C(=O)NCCc1ccccc1Cl` [Compound 401], the IC50 is under 100 µM.
Still for that read-out and setting: under `CC(C)COC(=O)N[C@@H](CCC(=O)O)C(=O)NC1(C(=O)N[C@@H](CS)C(=O)NCCc2ccccc2Cl)Cc2ccccc2C1` [Compound 415] stands under 100 µM; under `CCCC[C@H](NC(=O)[C@H](CCC(=O)O)NC(=O)OCC(C)C)C(=O)N[C@@H](CS)C(=O)NCCc1ccccc1Cl` [Compound 407], under 100 µM.
Still for that read-out and setting: under `CC(C)COC(=O)N[C@@H](CCC(=O)O)C(=O)N1C2CCCCC2C[C@H]1C(=O)N[C@@H](CS)C(=O)NCCc1ccccc1Cl` (some centres unmarked) [Compound 420] stands under 10 µM; under `CC(C)COC(=O)N[C@@H](CCC(=O)O)C(=O)N1C=CC[C@H]1C(=O)N[C@@H](CS)C(=O)NCCc1ccccc1Cl` [Compound 419], under 100 µM.
As for `CC(C)COC(=O)N[C@@H](CCC(=O)O)C(=O)N[C@H](C(=O)N[C@@H](CS)C(=O)NCCc1ccccc1Cl)C1CCCC1` [Compound 411], the IC50 is under 100 µM.
Turning to `CC(C)COC(=O)N[C@@H](CCC(=O)O)C(=O)N[C@@H](CC(F)F)C(=O)N[C@@H](CS)C(=O)NCCc1ccc(C(=O)O)cc1` [Compound 402], the IC50 is under 100 µM.
The same measure, in the same setting: the same measure for `CC(C)COC(=O)N[C@@H](CCC(=O)O)C(=O)N[C@@H](CCC(=O)OCc1ccccc1)C(=O)N[C@@H](CS)C(=O)NCCc1ccccc1Cl` [Compound 413]: under 100 µM.
On the same count and under the same terms, the same measure for `CC(C)COC(=O)N[C@@H](CCC(=O)O)C(=O)NC(CC(F)(F)F)C(=O)N[C@@H](CS)C(=O)NCCc1ccc(C(=O)O)cc1` (mixture of isomers) [Compound 403]: under 100 µM.
